Data set [1] relates to Vero cells. In kind it is cell-based. The conditions noted are these: African green monkey, 48 h. The method, then:
Cytotoxicity was measured against the African green monkey adult kidney cell line (Vero). Vero cells were plated at 25,000 cells/mL in black 96-well assay plates pre-populated with compound dilutions and controls. Cells were incubated in a humidified 5% CO2 environment at 37°C for 48 h; intracellular ATP levels were measured using CellTiter-Glo®Reagent (Promega, Madison, WI). Luminescence was measured using a Victor 2 plate reader and percentage inhibition of growth calculated. Results were expressed as toxicity concentration (TC50) = concentration of compound required to inhibit growth by 50%.

The test system of data set [2] is HeLa cells. It counts as cell-based. To be noted: human.
Data set [3] relates to M. tuberculosis H37Rv (RvS). Nature of the data set: microbe, parasite or virus in culture. In kind it is cell-based, Mycobacterium tuberculosis.
The target in data set [4] is T1, PanCMTB (Mycobacterium tuberculosis, UniProt P9WIL5).
T1 construct: 6X-Histidine (N); made in house; host or cells: E. coli BL21(ΔE3), vector pET28b+
In words: Low-throughput kinetic NADH depletion assay for PanCMTB, mode of inhibition. The conditions noted are these: for mode of inhibition / Ki: with respect to pantoate; for Ki: read-out: Ki inhibition constant; for α (parameter of mixed inhibition equation): with respect to the substrate pantoate. It counts as biochemical.

The target in data set [5] is T1, PanCMTB. In words: High-throughput single-timepoint fluorescence assay for PanCMTB activity (HTS and CRC). In kind it is biochemical. To be noted: for inhibition of the reaction: control inhibitor. The method, then: The activity of recombinant PanCMTB was measured, as previously described. Briefly, compounds or carrier DMSO alone were incubated with PanCMTB, the coupling enzymes, and their reagents for five minutes. The reaction was then initiated by addition of the PanCMTB substrates, pantoate and β-alanine. The reaction was conducted in wells of a black clear-bottomed microplate containing a final volume of 40 µL per well. The final concentrations were 0.4 mM NADH, 10 mM ATP, 1 mM pantoate, 5 mM β-alanine, 1 mM phosphoenol pyruvate (PEP-K), 10 mM MgCl2, 2% DMSO, 1 µg/mL of PanC, and 18 U/mL each of myokinase, pyruvate kinase and lactate dehydrogenase in 100 mM HEPES pH 7.8. The plate was immediately transferred to a SpectraMax micro-plate reader and the rate of NADH depletion was monitored by measuring the absorbance at 340 nm every 20 s for a total of 20 min.
The kinetic NADH depletion assay was initiated as described above. After 30 minutes 10 µL of solution containing fluorescent reagents was added to each well. The final 50 µL reaction contained 12.5 U/mL of diaphorase and 5 mM resazurin. After thorough mixing, the plate was transferred to a micro-plate reader and the level of resulting NADH-dependent resorufin determined by measuring fluorescence (excitation and emission filters set at […], respectively).
HTS library sets of individual compounds were plated at 1 mM - diluted first into HEPES and finally into the assay for a final assay concentration (FAC) of 20 µM. For concentration response curves (CRCs), the compounds were plated in single wells at 10 mM and diluted 3-fold across 9 adjacent wells in a row. Serial dilutions were made in 100% DMSO to ensure accurate concentrations of compound across the series. This entire plate was then treated in the same format as the HTS library plates, for FACs ranging from 200 µM- 0.01 µM in 2% DMSO (details provided in Text S1 and shown in Figure S3).

Data set [6] has as its system PanC-TetONM strain. Nature of the data set: microbe, parasite or virus in culture. It counts as cell-based, Mycobacterium tuberculosis.
Data set [7] addresses T1, PanCMTB. More on the design: method as in PMID 17175524. To be noted: read-out: inhibition constant; cited from earlier work.
The mark [8] stands for this setting: Mycobacterium tuberculosis, H37RV, 144 h.
[9] abbreviates: Mycobacterium tuberculosis, 144 h.

We go through 3 molecules from PMC3820577, “A High-Throughput Screen against Pantothenate Synthetase (PanC) Identifies 3-Biphenyl-4-Cyanopyrrole-2-Carboxylic Acids as a New Class of Inhibitor with Activity against Mycobacterium tuberculosis” (PLoS ONE, 2013).

The term EC50 denotes the concentration at which the effect is half-maximal. Higher therefore signals a less potent agent.

≈ marks a conversion by molar mass, not a printed value. Structures can show the parent of a compound that is named as a salt. Where two headings read alike, the source gives them in different places.

T1 sequence (P9WIL5 whole entry, looked up): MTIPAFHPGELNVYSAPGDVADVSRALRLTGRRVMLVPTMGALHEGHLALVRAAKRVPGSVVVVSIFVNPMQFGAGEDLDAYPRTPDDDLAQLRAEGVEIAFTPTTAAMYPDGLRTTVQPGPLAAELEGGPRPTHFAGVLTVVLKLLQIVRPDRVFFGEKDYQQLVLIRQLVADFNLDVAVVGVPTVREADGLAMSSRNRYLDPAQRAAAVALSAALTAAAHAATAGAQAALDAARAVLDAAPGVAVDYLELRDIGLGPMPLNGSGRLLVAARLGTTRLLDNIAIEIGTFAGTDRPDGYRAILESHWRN

Turning to `CCSc1c(C#N)c(-c2ccc(-c3ccccc3)cc2)c(C(=O)O)n1C` [compound 1], the TC50 in data set [1] is reported as 70 µM. Besides, the “average TC50” value in data set [2] is given as 179 µM. Also, the MIC50 in data set [3] is 115 µM (≈ 41.7 µg/mL); in data set [3] (setting [8]), 115 µM (≈ 41.7 µg/mL); in data set [6] (Mycobacterium tuberculosis), 111 µM (≈ 40.2 µg/mL); in data set [6] (setting [9]) it was 69 µM (≈ 25 µg/mL). Besides, the mode of inhibition entry in data set [4] is on record as “competitive inhibition”. Also, the Ki in data set [4] turned out to be 174 nM. In data set [4], the “α (parameter of mixed inhibition equation)” value is recorded as 128. The midpoint of the response in data set [5], the EC50, lay at 1800 nM.
`CCN(CC)CCOC(=O)C(Cc1cccc2ccccc12)CC1CCCO1` (stereo not drawn) [nafronyl oxalate, reference compound]: the Ki in data set [7] was about 75 µM. Further, the “inhibition of the reaction” value is about 80% in data set [5] (higher of two control concentrations) and about 50% in data set [5] (lower of two control concentrations).
In the case of `CCc1c(C#N)c(-c2ccc(-c3ccc(C#N)cc3)cc2)c(C(=O)O)n1C` [compound 2], the TC50 in data set [1] was found to be 96 µM. In addition, the “average TC50” value in data set [2] is 111 µM. Besides, the MIC50 in data set [3] was determined as 54 µM (≈ 19.2 µg/mL); in data set [3] (setting [8]), 54 µM (≈ 19.2 µg/mL); in data set [6], 24 µM (≈ 8.53 µg/mL); in data set [6] (Mycobacterium tuberculosis), 53 µM (≈ 18.8 µg/mL); in data set [6] (setting [9]), 24 µM (≈ 8.53 µg/mL). The mode of inhibition entry in data set [4] was “competitive inhibition”. In addition, in data set [4], the Ki stood at 297 nM. The “α (parameter of mixed inhibition equation)” value in data set [4] is 78. For the same molecule, in data set [5], the EC50 was found to be 4000 nM.
